Results published in patent US7122294B2, “Photoacid generators with perfluorinated multifunctional anions” (3M Innovative Properties Company, priority 2003, dated 2006).
“And” between values parts separate entries of the source, which are not always exact repeats. Equal values may be shown once.

How the values were obtained:
[1] = Photo-DSC/DSC cationic curing activity of PAGs in Epon 828; parameters: PDSC Peak Max / PDSC Induction Time: unit not given here; settings: for PDSC Energy: Epon 828, 1.0% PAG, 0.1% ITX, light exposure 5 min at 30° C.; for DSC after PDSC Onset Temp / DSC after PDSC Energy / DSC after PDSC Peak Max / PDSC Induction Time / DSC Only (dark) Energy / DSC Only (dark) Onset Temp / DSC Only (dark) Peak Max / PDSC Peak Max: Epon 828; for DSC after PDSC Onset Temp: DSC scan 10° C./minute after light exposure; for DSC after PDSC Energy / DSC after PDSC Peak Max: DSC scan after light exposure; for PDSC Induction Time: light exposure at 30° C.; for DSC Only (dark) Energy / DSC Only (dark) Onset Temp / DSC Only (dark) Peak Max: no prior light exposure; for PDSC Peak Max: time to peak maximum of curing exotherm at 30° C.
Method: (§1) Photo-DSC/DSC: Standard (hermetic) liquid sample pans were used. Sample size was kept in the 6 to 8 mg range. Samples were tested using a Dupont Photo-DSC/DSC instrument (available from DuPont, Wilmington, Del.). The light source was a 200 W Hg lamp that delivered about 60 mw/cm at the sample. Samples were exposed in open pans for 5 minutes to the light source at 30° C. then removed from the instrument, sealed and a standard DSC scan run at 10° C./minute to 300° C. A separate DSC experiment was carried out using a sealed sample pan and no prior light exposure to determine the dark reactivity of these PAGs. Comparison of the DSC traces before and after light exposure enables differentiation between the thermal reactivity of the PAGs (in the dark) and their photochemical activity.
(§2) This example describes photo-DSC/DSC experiments designed to quantitatively compare the relative cationic curing reactivities of PAGs of the present invention containing difunctional fluoroorganic sulfonate anions with related PAGs having identical cations and monofunctional perfluoroalkanesulfonate anions. Relative reactivities were measured in three different cationically polymerizable monomer systems, including two different types of epoxies and one vinyl ether.
(§3) The photo-DSC experiment provides information on the photo-cure speed at 30° C. as measured by the induction time (onset) and time to reach the peak maximum in the curing exotherm. […] The energy released under the curing exotherm is a measure of the extent of cure; larger values mean more cure has taken place during the light exposure. […] Comparison with the DSC traces recorded with no prior light exposure provides a measure of the increase in activity after photoactivation of the PAG.
(§4) General: Stock solutions of three cationically curable monomers were prepared as shown in Table 3 with 0.1% (w/w) isopropylthioxanthone (ITX). Epon 828 is a difunctional glycidyl ether epoxy from Shell, ERL-4221 is a difunctional cycloaliphatic epoxy from Union Carbide and VEX 5015 is a trifunctional vinyl ether from Allied Signal. Because of the low sensitivity of these compositions to room lights, all sample preparation was done with the lab lights on but the hood lights off. All PAGs were formulated at 1.0% by weight in the stock monomer/sensitizer solutions. Into a small aluminum pan was weighed 0.02 g of PAG and 0.04 g of propylene carbonate used to promote dissolution of the PAG in the monomer. The pan was heated briefly on a hot plate set at 100° C. to dissolve the PAG, then 2.0 g the stock monomer/sensitizer solution was added. The solution was briefly heated again on a hot plate set at 100° C. to allow complete mixing of the components, then the solution was allowed to cool to room temperature before using.

[2] = Photo-DSC/DSC cationic curing activity of PAGs in ERL-4221; parameters: PDSC Peak Max / PDSC Induction Time: unit not given here; settings: for PDSC Energy: ERL-4221, 1.0% PAG, 0.1% ITX, light exposure 5 min at 30° C.; for DSC after PDSC Onset Temp / DSC after PDSC Energy / DSC after PDSC Peak Max / PDSC Induction Time / DSC Only (dark) Energy / DSC Only (dark) Onset Temp / DSC Only (dark) Peak Max / PDSC Peak Max: ERL-4221; for DSC after PDSC Onset Temp: DSC scan 10° C./minute after light exposure; for DSC after PDSC Energy / DSC after PDSC Peak Max: DSC scan after light exposure; for PDSC Induction Time: light exposure at 30° C.; for DSC Only (dark) Energy / DSC Only (dark) Onset Temp / DSC Only (dark) Peak Max: no prior light exposure; for PDSC Peak Max: time to peak maximum of curing exotherm at 30° C.
Method: as §1, §2, §3, §4

[3] = Photo-DSC/DSC cationic curing activity of PAGs in VEX 5015; parameters: PDSC Peak Max / PDSC Induction Time: unit not given here; settings: for PDSC Energy: VEX 5015, 1.0% PAG, 0.1% ITX, light exposure 5 min at 30° C.; for DSC after PDSC Energy / DSC after PDSC Onset Temp / DSC after PDSC Peak Max / PDSC Induction Time / DSC Only (dark) Onset Temp / PDSC Peak Max: VEX 5015; for DSC after PDSC Energy / DSC after PDSC Onset Temp / DSC after PDSC Peak Max: DSC scan after light exposure; for DSC after PDSC Onset Temp / DSC after PDSC Peak Max / DSC Only (dark) Onset Temp: two values = two exotherms; for PDSC Induction Time: light exposure at 30° C.; for DSC Only (dark) Onset Temp: no prior light exposure; for PDSC Peak Max: time to peak maximum of curing exotherm at 30° C.
Method: as §1, §2, §3, §4

[4] = Bio-elimination screening after a single oral dose; format: in vivo, male Sprague Dawley rats; settings: for Total F concentration in Liver / Total F concentration in Serum: 30 mg/kg single oral dose; for parent compound recovered in the urine: within the first 28 hours post dose, 19F NMR; for bioelimination compared to PFOS: screenings in rats
Method: The objective of this study was to evaluate the potential for oral absorption, distribution, and serum and liver elimination rates of KO3SCF2CF2CF2CF2SO3K and LiO3SCF2CF2CF2COOLi in male Sprague Dawley rats after a single oral dose. Quantitation of fluorinated salt levels and potential metabolites in serum and liver were performed by total organic fluorine analysis.
21 male Sprague Dawley rats (Harlan), 6–8 weeks in age and weighing approximately 150–250 g were treated with a single dose of the test compound, prepared in propylene glycol (suspension of 6 mg/ml propylene glycol), via oral gavage at either 0 mg/kg (control) or 30 mg/kg body weight (Group 1) (3 animals per dose group per designated treatment period). […] Liver and serum samples were collected for total fluorine analysis on each of those days. All the specimens collected at necropsy were temporarily stored in at −70° C. A complete protocol for this study is available (Strategic Toxicology Lab Protocol Number ST-88). Urine samples were collected and analyzed by ^19F NMR on day one and day four (0–4, 4–24 and 76–100 hrs, respectively) post dose in order to determine the concentration of the respective perfluorinated anion.

[5] = Thermal gravimetric analysis (TGA), onset of thermal decomposition; format: physicochemical; settings: under nitrogen, ramp 10° C. per minute
Method: TGA was performed on a Perkin-Elmer Instruments TGA Model 7 in an open platinum pan. The onset of thermal decomposition, Td, was taken as the thermal decomposition temperature of the photoacid generators and was determined under nitrogen atmosphere using a temperature ramp of 10° C. per minute. The onset temperature was determined by the intersection of tangents to the low temperature portion of the baseline and the first inflection point in the wt % vs. temperature curve.

SMILES | PDSC Energy [1] [J/g] | DSC after PDSC Onset Temp [1] [C.°] | DSC after PDSC Energy [1] [J/g] | DSC after PDSC Peak Max [1] [°C] | PDSC Induction Time [1] | DSC Only (dark) Energy [1] [J/g] | DSC Only (dark) Onset Temp [1] [C.°] | DSC Only (dark) Peak Max [1] [°C] | PDSC Peak Max [1] | PDSC Energy [2] [J/g] | DSC after PDSC Onset Temp [2] [C.°] | DSC after PDSC Energy [2] [J/g] | DSC after PDSC Peak Max [2] [°C] | PDSC Induction Time [2] | DSC Only (dark) Energy [2] [J/g] | DSC Only (dark) Onset Temp [2] [C.°] | DSC Only (dark) Peak Max [2] | PDSC Peak Max [2] | PDSC Energy [3] [J/g] | DSC after PDSC Energy [3] [J/g] | also measured
CC(C)(C)c1ccc([I+]c2ccc(C(C)(C)C)cc2)cc1.O=S(=O)([O-])C(F)(F)C(F)(F)C(F)(F)C(F)(F)F [DTBPI-ONf, reference compound] | 10 | 100 | 558 | 190 | 12.5 | 606 | 175 | 232 | 21.2 | 5 | 50 | 577 | 148 | 15.7 | 566 | 150 | 192 | 24 | 242 | 31 | DSC after PDSC Onset Temp [3]: 125 C.°; DSC after PDSC Peak Max [3]: 159 °C; PDSC Induction Time [3]: 0.9; DSC Only (dark) Onset Temp [3]: 100, C.° and 155 C.°; PDSC Peak Max [3]: 2.8
CC(C)(C)c1ccc([I+]c2ccc(C(C)(C)C)cc2)cc1.O=S(=O)([O-])C(F)(F)C(F)(F)C(F)(F)C(F)(F)C(F)(F)C(F)(F)C(F)(F)C(F)(F)F [DTBPI-PFOS, reference compound] | 4 | 100 | 566 | 197 | 18.9 | 608 | 175 | 238 | 28.4 | 4 | 65 | 560 | 155 | 14.8 | 583 | 150 | 190 | 22.4 | 230 | 24 | DSC after PDSC Onset Temp [3]: 140 C.°; DSC after PDSC Peak Max [3]: 163 °C; PDSC Induction Time [3]: 1.1; DSC Only (dark) Onset Temp [3]: 100, C.° and 160 C.°; PDSC Peak Max [3]: 3.2
O=S(=O)([O-])C(F)(F)C(F)(F)C(F)(F)C(F)(F)S(=O)(=O)[O-].[K+].[K+] [KO3SCF2CF2CF2CF2SO3K, KO3S(CF2)4SO3K] | – | – | – | – | – | – | – | – | – | – | – | – | – | – | – | – | – | – | – | – | Total F concentration in Liver ([4]; rat, Day 0): ND (ND = not detectable within limits of test (0.3 ppm)); Total F concentration in Serum ([4]; rat, Day 0): (ND) (ND = not detectable within limits of test (0.3 ppm)); Total F concentration in Liver ([4]; rat, Day 1): 0.6 ppm; Total F concentration in Serum ([4]; rat, Day 1): (ND) (ND = not detectable within limits of test (0.3 ppm)); Total F concentration in Liver ([4]; rat, Day 4): ND (ND = not detectable within limits of test (0.3 ppm)); Total F concentration in Serum ([4]; rat, Day 4): (ND) (ND = not detectable within limits of test (0.3 ppm)); Total F concentration in Liver ([4]; rat, Day 8): ND (ND = not detectable within limits of test (0.3 ppm)); Total F concentration in Serum ([4]; rat, Day 8): (ND) (ND = not detectable within limits of test (0.3 ppm)); Total F concentration in Liver ([4]; rat, Day 14): ND (ND = not detectable within limits of test (0.3 ppm)); Total F concentration in Serum ([4]; rat, Day 14): (ND) (ND = not detectable within limits of test (0.3 ppm)); parent compound recovered in the urine ([4]; rat, single oral dose): 11%; bioelimination compared to PFOS [4]: more readily bioeliminate compared to PFOS
O=C(O)C(F)(F)C(F)(F)C(F)(F)S(=O)(=O)O [LiO3SCF2CF2CF2CO2Li, LiO3S(CF2)3CO2Li] | – | – | – | – | – | – | – | – | – | – | – | – | – | – | – | – | – | – | – | – | Total F concentration in Liver ([4]; rat, Day 0): 0.5 ppm; Total F concentration in Serum ([4]; rat, Day 0): (ND) (ND = not detectable within limits of test (0.3 ppm)); Total F concentration in Liver ([4]; rat, Day 1): ND (ND = not detectable within limits of test (0.3 ppm)); Total F concentration in Serum ([4]; rat, Day 1): (ND) (ND = not detectable within limits of test (0.3 ppm)); Total F concentration in Liver ([4]; rat, Day 4): ND (ND = not detectable within limits of test (0.3 ppm)); Total F concentration in Serum ([4]; rat, Day 4): (ND) (ND = not detectable within limits of test (0.3 ppm)); Total F concentration in Liver ([4]; rat, Day 8): ND (ND = not detectable within limits of test (0.3 ppm)); Total F concentration in Serum ([4]; rat, Day 8): (ND) (ND = not detectable within limits of test (0.3 ppm)); Total F concentration in Liver ([4]; rat, Day 14): ND (ND = not detectable within limits of test (0.3 ppm)); Total F concentration in Serum ([4]; rat, Day 14): (ND) (ND = not detectable within limits of test (0.3 ppm)); estimated half life of elimination via the urinary route ([4]; rat, single oral dose): less than 28 hours; parent compound recovered in the urine ([4]; rat, single oral dose): greater than 96%; bioelimination compared to PFOS [4]: more readily bioeliminate compared to PFOS
O=S(=O)([O-])C(F)(F)C(F)(F)N(C(F)(F)F)C(F)(F)C(F)(F)S(=O)(=O)[O-].c1ccc([S+](c2ccccc2)c2ccccc2)cc1.c1ccc([S+](c2ccccc2)c2ccccc2)cc1 [PAG-3, [(C6H5)3S^+]2CF3N(CF2CF2SO3^−)2] | – | – | – | – | – | – | – | – | – | – | – | – | – | – | – | – | – | – | – | – | onset of thermal decomposition (TGA) [5]: 411 °C
